# Measured values: patent US20250312408A1, “NAP FOR SEX-SPECIFIC TREATMENT OF DISEASES” (RAMOT AT TEL-AVIV UNIVERSITY LTD., priority 2021, published 2025)
# Read-outs that look alike come from different tables or passages of the source.
# Assays:
# PSP patients [1] = assay: Phase 2/3 davunetide vs placebo trial in PSP, re-evaluated separating males and females; format: in vivo, human
# Description: In this example we used results of a clinical trial performed as described in Boxer et al. Shortly, in a double blind, parallel group, phase 2/3 trial, participants were randomly assigned with permuted blocks in a 1:1 ratio to davunetide (NAP, having amino acid sequence […] set forth as SEQ ID NO: 1, 30 mg twice daily, intranasally) or placebo for 52 weeks at 48 centers in Australia, Canada, France, Germany, the UK, and the USA. Participants met the modified Neuroprotection and Natural History in Parkinson Plus Syndrome study criteria for PSP. Primary endpoints were the change from baseline in PSP Rating Scale (PSPRS, 28 items, 6 categories, 0=normal, 100=most disability) and Schwab and England Activities of Daily Living scale (SEADL, 11-point rating scale, 0=vegetative, 100%/=completely independent, 10% increments) at up to 52 weeks. Data collection was at week 0, 6, 13, 26, 39 and 52. All participants and study personnel were masked to treatment assignment. Analysis was by intention to treat. The trial is registered with Clinicaltrials.gov, number NCT01110720. 313 participants were randomly assigned to davunetide (n=157) or to placebo (n=156), and 241 (77%) completed the study (118 and […] in the davunetide and placebo groups, respectively). A secondary outcome was brain ventricular volume as measured with boundary shift integral analysis of T1-weighted magnetic resonance imaging (MRI) scans, mostly collected at week 0 and 52. At the same time, selected patients were also subjected to lumbar puncture and assessment of Tau content and Tau hyperphosphorylation in the cerebrospinal fluid (CSF).
# To further understand disease progression, sex/age/baseline differences and drug influence, we re-evaluated study results, separating males and females, and assessing the primary and secondary endpoints. In this respect, we further assessed individually the 6 disability domains of the PSPRS, namely: daily activities (by history, seven items with a total maximum score of 24), behavior (mentation, emotional, interference with activity of daily living, maximum score of 16), bulbar (speech and swallowing, maximal score of 8), ocular motor (eye and eyelid activity, 16 points), limb motor (fine motor skills including tremor, 16 points) and gait/midline (gross motor skills, 20 points) https://www.physio-pedia.com/Progressive_Supranuclear_Palsy_Rating_Scale_(PSP-RS).
# Statistical considerations: To include the ventricle volumetric measures, the cohort was composed of female and male PSP patients treated with davunetide or placebo (sample sizes for sex-treatment groups at 52 weeks of treatment: 48-55), outcome variables included ventricular volume (will be referred to as volume), PSPRS and SEADL assessed at study initiation and follow up to 52 weeks after twice daily treatment.
# Data analysis was performed using Graph Pad Prism 7.0 software (see FIGS. 1 and 4). Other statistical tests and visualizations were made in R version 4.2.1 (2022-06-23) with the base library, ggplot2 and ggplot2 extension packages. Correlation plots statistics (FIGS. 2, 3 and 5) were computed using the standard Pearson method. The volume change (from FIG. 3) is the difference between the baseline and week-52 measurements. PSPRS, SEADL and ventricular volume in figures (FIG. 5) are represented by differences between the baseline and week-52 measurements, as a percentage of the baseline measurement. FIGS. 6 and 7 give the absolute changes overtime, due to the non-normal distribution of most parameters, statistical significance was measured using the Wilcoxon test. Only extreme values (defined as 3*IQR deviation from the penultimate top/bottom quantiles), were removed from the final calculations. There were only 11 observations that were considered extreme and their influence on our results was insignificant. FIG. 8 representing the geriatric depression scale measure (GDS) was prepared using excel.
# [2] = test system: subjects suffering from amnestic mild cognitive impairment (aMCI); assay: aMCI clinical trial, CANTAB Delayed Match-to-Sample (DMTS) test, men and women analysed separately; format: in vivo, human; settings: for effect of treatment on aMCI symptoms: males, 30 mg/day; for DMTS change vs placebo, Student's t test: men only
# Description: The subject's task is to select the pattern that matches the original sample, here depicted after a 12 s interval. Thus, subjects suffering from aMCI were treated with either 5 mg daily or 15 mg twice daily (BID) by intranasal davunetide administration (1 or three puffs of the same strength davunetide solution). Treatment was for 12 weeks and testing was at baseline and every four weeks, including also 4 weeks after cessation of treatment. When analyzing the data, we separated here men and women for the first time as outlined below. […] We further conclude that much higher dose are required, especially in females.
# [3] = test system: subjects with schizophrenia; assay: Schizophrenia clinical trial, UCSD Performance-based Skills Assessment (UPSA), analysed separately for males and females; format: in vivo, human
# Description: Briefly, sixty-three subjects with schizophrenia received davunetide at one of two different doses (5, 30 mg/day) or placebo for 12 weeks in a multicenter, double-blind, parallel-group randomized clinical trial. The MATRICS Consensus Cognitive Battery (MCCB) assessed cognitive effects. The UCSD Performance-based Skills Assessment (UPSA) with maximal score of 100 and the Schizophrenia Cognition Rating Scale (SCoRS) assessed functional capacity. Subjects continued their current antipsychotic treatment during the trial. For UPSA, there was a significant main effect of treatment across study arms (p=0.048). Between-group effect size (d) values were 0.74 and 0.48, favoring the 5 and 30 mg doses, respectively.
# Considering the results obtained for PSP and the involvement of ADNP in both diseases, we analyzed the data separately for males and females with 7-16 subjects per group. […] All in all, the 5 mg daily dose was beneficial for women as detected after 6 and 12 weeks of treatment.
# Hace1 = assay: Hippocampal RNA sequencing of Adnp mutated (HTR (Tyr)) mice; format: in vivo
# From the text: In this model, gait deficits were accentuated in females, and ameliorated by NAP treatment. We discovered a surprising mirror imaging in NAP peptide (davunetide) brain (hippocampus) action in the treated mice as a dependence on mice sex. […] Hace1 is associated with ataxia and Huntington disease and is also involved in depression and Alzheimer's disease. NAP protection (FIG. 11) further attests to sex-dependent treatments of the diseases associated or mediated with Hace1.
# [4] = test system: subjects suffering from amnestic mild cognitive impairment (aMCI); settings: sexes not separated; cited from earlier work
# [5] = test system: subjects with schizophrenia; settings: cited from earlier work; for UPSA score vs placebo (Javitt et al.): 5 mg daily dose; for UPSA between-group effect size (d): 12 weeks, men and women mixed (Javitt et al.)
# [6] = test system: Adnp mutated (HTR (Tyr)) mice; settings: deficits accentuated in females (Karmon et al.); cited from earlier work
# PSP patients [7] = settings: cited from earlier work; for PSP trial outcome, sexes not separated (Boxer et al.): 30 mg twice daily, 52 weeks, whole population
# [8] = males, from week 26 on, 30 mg twice daily
# [9] = woman cohort, very few individuals, exploratory
structure (smiles),measurement,setting,value
CC[C@H](C)[C@H](NC(=O)[C@H](CO)NC(=O)[C@@H](NC(=O)[C@@H]1CCCN1C(=O)[C@H](C)NC(=O)[C@@H](N)CC(N)=O)C(C)C)C(=O)N1CCC[C@H]1C(=O)N[C@@H](CCC(N)=O)C(=O)O [davunetide],CGIds (Clinical Global Impression of Disease Severity),"PSP patients [1]; davunetide-treated males, P=0.013",deteriorated
same,adverse effects on all other PSPRS domains,PSP patients [1]; females,no adverse effects
same,ventricular volume increase correlating with baseline ventricular volume,"PSP patients [1]; females, 30 mg twice daily intranasally, 52 weeks",complete protection
same,PSPRS change vs placebo,"PSP patients [1]; females, 52 weeks, 30 mg twice daily",trended toward significant improvement
same,disease progression in PSPRS mental behavior domain,"PSP patients [1]; females, over 52 weeks",almost halted
same,SEADL change from baseline vs placebo,"PSP patients [1]; females, starting at week 39 and continuing on 52, P=0.0187 and P=0.00537",significant protective effect
same,effect on oculomotor activities (PSPRS domain),"PSP patients [1]; females, week 6, P=0.0127",transient adverse effect
same,GDS score (geriatric depression) compared to placebo,"PSP patients [1]; females, week 52, Wilcoxon, P=0.023",improved significantly
same,"bulbar domain of the PSPRS (dysarthria, dysphagia) vs placebo","PSP patients [1]; females, week 52, P=0.0222",significant protective effect
same,limb motor skills (PSPRS domain) vs placebo,"PSP patients [1]; females, P=0.0838",partially protected
same,ventricular volume change vs baseline ventricular volume,"PSP patients [1]; males, 30 mg twice daily intranasally, 52 weeks",no drug effects
same,PSPRS change compared to the placebo group,PSP patients [1]; [8],significant increase in PSPRS
same,SEADL change compared to the placebo group,PSP patients [1]; [8],decrease in SEADL
same,percent of baseline ventricular volume change with age vs placebo,"PSP patients [1]; men, 30 mg twice daily intranasally, 52 weeks",No differences
same,percent of baseline ventricular volume change with age vs placebo,"PSP patients [1]; men, 30 mg twice daily intranasally, 52 weeks, listed as NAP peptide",not observed in males
same,phosphorylated Tau in the cerebrospinal fluid (CSF) compared to placebo,PSP patients [1]; [9],trends in total Tau and phosphorylated Tau reduction
same,total Tau in the cerebrospinal fluid (CSF) compared to placebo,PSP patients [1]; [9],trends in total Tau and phosphorylated Tau reduction
same,percent of baseline ventricular volume change with age vs placebo,"PSP patients [1]; women (older woman patients), 30 mg twice daily intranasally, 52 weeks",significant neuroprotective effect
same,percent of baseline ventricular volume change with age vs placebo,"PSP patients [1]; women (older woman patients), 30 mg twice daily intranasally, 52 weeks, listed as NAP peptide",reduced the increase in the size of brain ventricles
same,effect of treatment on aMCI symptoms,[2]; listed as NAP,significant improvement
same,effect of treatment on aMCI symptoms,[2]; listed as NAP peptide,statistically significant effect
same,"DMTS change vs placebo, Student's t test",[2]; test week 8,significant difference
same,"DMTS change vs placebo, Student's t test",[2]; week 4 and 16,trending
same,"UPSA change, average","[3]; men, 5 mg daily",7.4 points
same,effect on UPSA,"[3]; men, 5 mg daily, especially after 6 weeks",effective
same,effect on UPSA,"[3]; men, 15 mg twice daily (30 mg/day), 12 weeks",significant results
same,effect on UPSA,"[3]; men, 15 mg twice daily (30 mg/day), 12 weeks, listed as NAP",significant improvement
same,"UPSA change, mean","[3]; women, 5 mg daily, 12 weeks",14.9 points
same,effect on UPSA,"[3]; women, 5 mg daily, after 6 and 12 weeks",beneficial
same,UPSA improvement,"[3]; women, 5 mg daily, after 12 weeks",15%
same,effect on UPSA,"[3]; women, 15 mg twice daily (30 mg/day), week 12, vs 5 mg/day P=0.002",significantly lower effect
same,effect on UPSA,"[3]; women, 15 mg twice daily (30 mg/day), week 12, vs 5 mg/day P=0.002, listed as NAP",not observed
same,Hace1 gene/mRNA intron retention event (aberrant alternative splicing),"Hace1; ADNP mutated HTR males, brain hippocampal samples",corrected
same,Hace1 expression as a consequence of NAP treatment,"Hace1; male vs female Adnp mutated mice, hippocampus",sex-specific opposite expression
same,cognitive score in aMCI (Morimoto et al.),[4],cognitive score enhancement
same,UPSA score vs placebo (Javitt et al.),[5]; sexes mixed,significantly more effective
same,UPSA score vs placebo (Javitt et al.),"[5]; sexes mixed, listed as NAP",significantly higher
same,UPSA between-group effect size (d),[5]; 5 mg dose,0.74
same,UPSA score vs 5 mg daily dose and placebo (Javitt et al.),"[5]; 30 mg (15 mg twice daily), sexes mixed",insignificantly different
same,UPSA between-group effect size (d),[5]; 30 mg dose,0.48
same,daily living activities in schizophrenia patients (Javitt et al.),[5]; sexes mixed,protection of daily living activities
same,gait deficits,[6],ameliorated
same,"PSP trial outcome, sexes not separated (Boxer et al.)",PSP patients [7],did not meet its endpoints
same,"PSP trial outcome, sexes not separated (Boxer et al.)",PSP patients [7]; listed as Davunetide,not an effective treatment
same,safety in the PSP trial (Boxer et al.),PSP patients [7]; in vivo,showing safety
